Measurements published in patent US9896423B2, “Deuterium substituted 1-[2-(2,4-dimethyl-phenylsulfanyl)-phenyl]piperazine compound or derivatives thereof, and pharmaceutical composition and use thereof” (Jiangsu Jibeier Pharmaceutical Co. Ltd., priority 2014, dated 2018).
Values joined by “and” are separate entries in the source; they are usually repeats but may differ in a detail not shown here. Equal values may be shown once. Read-outs that look alike come from different tables or passages of the source.

Assays:
[1] = single oral dose of [14C]-labeled vortioxetine; cited from earlier work
[2] = Pharmacokinetic test in rats, intravenous injection; assay type: in vivo, SD rats; settings: for Concentrations in Plasma of Rats after Intravenous Injection / concentration at 0.05 h / concentration at 0.133 h / concentration at 4 h / concentration at 6 h / concentration at 9 h / concentration at 12 h / concentration at 24 h: 2 mg/kg iv; for concentration at 0.05 h / concentration at 0.133 h / concentration at 4 h / concentration at 6 h / concentration at 9 h / concentration at 12 h / concentration at 24 h: intravenous
Procedure: The preferred compound of the present disclosure was assessed in rats for its pharmacokinetic profile.
SD rats, male and female, weighing 150 to 250 g
Mobile phase: 10 mM ammonium formate aqueous solution:methanol=15:85
The ionization source was electrospray ionization source. The detection mode was positive mode. Multiple reaction monitoring (MRM) was used as the scanning mode. The ion reaction for the quantitative analysis was the following: m/z was 305.2\150.0 for XX, and 256.1\167.1 for diphenhydramine (the internal standard).
Four male SD rats were taken. The dosage was calculated as 5 mL/kg body weight and 2 mg/kg. XX or YY was dissolved in DMSO (3% of a total volume) and castor oil (3% of the total volume) was added to the solution, followed by agitating with a vortex mixer. Subsequently, saline was added to the mixture to the total volume to afford the intravenous injection for the rats. The injections were intravenously administered to four male SD rats. Blood from the rats' orbits was collected 3 min, 8 min, 15 min, 30 min, 1 hr, 2 hr, 3 hr, 4 hr, 6 hr, 9 hr, 12 hr and 24 hr later after the injection, respectively.
After the blood collection, the tubes were immediately gently turned upside down at least five times to ensure sufficient mixing, and placed on ice. Heparin was added for anticoagulation. The samples were centrifuged at 8000 rpm for 5 min to separate serum from erythrocyte. The serum was transferred with a pipettor to 2 mL polypropylene (PP) tubes, which were marked with the name of the compound and the time points, and stored in a refrigerator at −40° C. before LC-MS analysis. Samples with high concentrations were diluted with rat blank plasma.
2.5 μL of Meth-H2O and 5 μL of the internal standard solution (20 ng/mL, IS) were added to 50 μL of the plasma. Subsequently, 150 μL of methanol was added to the mixture to precipitate protein and the samples were then centrifuged at 13000 rpm for 5 min. The upper organic phase was taken out, filtrated with a 0.22 μM microporous membrane, and 2 μL of the sample was injected for the LC-MS analysis.

Concentrations in Plasma of Rats after Intravenous Injection ([2]; 0.05 h after administration, individual rats): 123.2 ng/mL and 127.2 ng/mL | Concentrations in Plasma of Rats after Intravenous Injection ([2]; 0.133 h, individual rats): 89 ng/mL and 85.9 ng/mL | Concentrations in Plasma of Rats after Intravenous Injection ([2]; 0.25 h, individual rats): 78.8 ng/mL and 77.3 ng/mL | Concentrations in Plasma of Rats after Intravenous Injection ([2]; 0.5 h, individual rats): 76.9 ng/mL and 71.3 ng/mL | Concentrations in Plasma of Rats after Intravenous Injection ([2]; 1 h, individual rats): 73.3 ng/mL and 68.6 ng/mL | Concentrations in Plasma of Rats after Intravenous Injection ([2]; 2 h, individual rats): 69.5 ng/mL and 68.1 ng/mL | Concentrations in Plasma of Rats after Intravenous Injection ([2]; 3 h, individual rats): 53.4 ng/mL and 49.8 ng/mL | Concentrations in Plasma of Rats after Intravenous Injection ([2]; 4 h, individual rats): 38.5 ng/mL and 27.6 ng/mL | Concentrations in Plasma of Rats after Intravenous Injection ([2]; 6 h, individual rats): 28.4 ng/mL and 25.8 ng/mL | Concentrations in Plasma of Rats after Intravenous Injection ([2]; 9 h, individual rats): 16.1 ng/mL and 18.6 ng/mL | Concentrations in Plasma of Rats after Intravenous Injection ([2]; 12 h, individual rats): 7.86 ng/mL and 7.50 ng/mL | Concentrations in Plasma of Rats after Intravenous Injection ([2]; 24 h, individual rats): 2.57 ng/mL and 2.89 ng/mL | concentration at 0.05 h ([2]; male, SD, rat, plasma, 2 mg/kg, 0.05 h, mean, read-out: Concentrations in Plasma of Rats after Intravenous Injection, Mean ± SD): 214 ± 38.9 ng/mL | concentration at 0.05 h ([2]; male, SD, rat, plasma, 2 mg/kg, 0.05 h after administration, individual rats, read-out: Concentrations in Plasma of Rats after Intravenous Injection): 134 ng/mL | concentration at 0.133 h ([2]; male, SD, rat, plasma, 2 mg/kg, 0.133 h, individual rats, read-out: Concentrations in Plasma of Rats after Intravenous Injection): 86.5 ng/mL | concentration at 0.133 h ([2]; male, SD, rat, plasma, 2 mg/kg, 0.133 h, mean, read-out: Concentrations in Plasma of Rats after Intravenous Injection, Mean ± SD): 170 ± 7.8 ng/mL | concentration at 4 h ([2]; male, SD, rat, plasma, 2 mg/kg, 4 h, individual rats, read-out: Concentrations in Plasma of Rats after Intravenous Injection): 27.2 ng/mL | concentration at 4 h ([2]; male, SD, rat, plasma, 2 mg/kg, 4 h, mean, read-out: Concentrations in Plasma of Rats after Intravenous Injection, Mean ± SD): 40.9 ± 3.4 ng/mL | concentration at 6 h ([2]; male, SD, rat, plasma, 2 mg/kg, 6 h, individual rats, read-out: Concentrations in Plasma of Rats after Intravenous Injection): 25.8 ng/mL | concentration at 6 h ([2]; male, SD, rat, plasma, 2 mg/kg, 6 h, mean, read-out: Concentrations in Plasma of Rats after Intravenous Injection, Mean ± SD): 33.1 ± 3.43 ng/mL | concentration at 9 h ([2]; male, SD, rat, plasma, 2 mg/kg, 9 h, individual rats, read-out: Concentrations in Plasma of Rats after Intravenous Injection): 14.9 ng/mL | concentration at 9 h ([2]; male, SD, rat, plasma, 2 mg/kg, 9 h, mean, read-out: Concentrations in Plasma of Rats after Intravenous Injection, Mean ± SD): 19.5 ± 1.49 ng/mL | concentration at 12 h ([2]; male, SD, rat, plasma, 2 mg/kg, 12 h, individual rats, read-out: Concentrations in Plasma of Rats after Intravenous Injection): 8.44 ng/mL | concentration at 12 h ([2]; male, SD, rat, plasma, 2 mg/kg, 12 h, mean, read-out: Concentrations in Plasma of Rats after Intravenous Injection, Mean ± SD): 7.85 ± 0.62 ng/mL | concentration at 24 h ([2]; male, SD, rat, plasma, 2 mg/kg, 24 h, individual rats, read-out: Concentrations in Plasma of Rats after Intravenous Injection): 3.38 ng/mL | concentration at 24 h ([2]; male, SD, rat, plasma, 2 mg/kg, 24 h, mean, read-out: Concentrations in Plasma of Rats after Intravenous Injection, Mean ± SD): 4.07 ± 0.05 ng/mL | AUC(0-inf) ([2]; male, SD, rat, plasma, iv, 2 mg/kg, rats, iv 2 mg/kg, XX n = 4, YY n = 3, read-out: AUC0-∞, Mean ± SD): 654 ± 23.9 ng·h/mL | Cmax ([2]; male, SD, rat, plasma, iv, 2 mg/kg, rats, iv 2 mg/kg, XX n = 4, YY n = 3, read-out: Cmax, Mean ± SD): 214 ± 38.9 ng/mL
SMILES: Cc1ccc(Sc2ccccc2N2CCNCC2)c(C)c1 [YY, 1-[2-(2,4-dimethyl-phenylsulfanyl)-phenyl]piperazine]
radioactive metabolites recovered in the feces [1]: ~26% | radioactive metabolites recovered in the urine [1]: approximately 59%
